In patent US11946064B2, “Compositions and therapeutic methods of microRNA gene delivery” (The Brigham and Women's Hospital, Inc., priority 2018, dated 2024):

Tested on: glioblastoma initiating cells (GICs)
Assay: survival of mice implanted intracranially with GICs and treated with TMZ
Assay type: in vivo, athymic nude mice
Conditions: control cells; intraperitoneal TMZ 20 mg/Kg/day for 5 days
Procedure: FIGS. 6A-6F illustrates the effect of clustered microRNAs on GBM cells treated with TMZ or irradiation. […] Dotted lines represent animals treated with TMZ. Different line colors represent the different overexpressed clusters.
Furthermore, in an in vivo model, mice were intracranially implanted with glioblastoma initiating cells (GICs) expressing either control vector, Cluster 3 or Cluster 5 vector and treated with intraperitoneal TMZ injections (20 mg/Kg/day for 5 days).

In the case of `Cn1nnc2c(C(N)=O)ncn2c1=O` [TMZ, temozolomide], the survival benefit is reported as about 40%.
